Calls of active or inactive are those of the source. The rule behind the calls is not given here.
How the values were obtained:
[1] = biological target: T1, Protein cereblon/Hepatocyte growth factor receptor (Homo sapiens, UniProt P08581+Q96SW2); test: PROTAC activity at c-Met/CRBN in human EBC-1 cells assessed as reduction in AKR1C2 level at 15.6 nM incubated for 24 hrs by proteomics analysis; format: cell-based
Target sequence in this assay (P08581 25-1390 limits assumed): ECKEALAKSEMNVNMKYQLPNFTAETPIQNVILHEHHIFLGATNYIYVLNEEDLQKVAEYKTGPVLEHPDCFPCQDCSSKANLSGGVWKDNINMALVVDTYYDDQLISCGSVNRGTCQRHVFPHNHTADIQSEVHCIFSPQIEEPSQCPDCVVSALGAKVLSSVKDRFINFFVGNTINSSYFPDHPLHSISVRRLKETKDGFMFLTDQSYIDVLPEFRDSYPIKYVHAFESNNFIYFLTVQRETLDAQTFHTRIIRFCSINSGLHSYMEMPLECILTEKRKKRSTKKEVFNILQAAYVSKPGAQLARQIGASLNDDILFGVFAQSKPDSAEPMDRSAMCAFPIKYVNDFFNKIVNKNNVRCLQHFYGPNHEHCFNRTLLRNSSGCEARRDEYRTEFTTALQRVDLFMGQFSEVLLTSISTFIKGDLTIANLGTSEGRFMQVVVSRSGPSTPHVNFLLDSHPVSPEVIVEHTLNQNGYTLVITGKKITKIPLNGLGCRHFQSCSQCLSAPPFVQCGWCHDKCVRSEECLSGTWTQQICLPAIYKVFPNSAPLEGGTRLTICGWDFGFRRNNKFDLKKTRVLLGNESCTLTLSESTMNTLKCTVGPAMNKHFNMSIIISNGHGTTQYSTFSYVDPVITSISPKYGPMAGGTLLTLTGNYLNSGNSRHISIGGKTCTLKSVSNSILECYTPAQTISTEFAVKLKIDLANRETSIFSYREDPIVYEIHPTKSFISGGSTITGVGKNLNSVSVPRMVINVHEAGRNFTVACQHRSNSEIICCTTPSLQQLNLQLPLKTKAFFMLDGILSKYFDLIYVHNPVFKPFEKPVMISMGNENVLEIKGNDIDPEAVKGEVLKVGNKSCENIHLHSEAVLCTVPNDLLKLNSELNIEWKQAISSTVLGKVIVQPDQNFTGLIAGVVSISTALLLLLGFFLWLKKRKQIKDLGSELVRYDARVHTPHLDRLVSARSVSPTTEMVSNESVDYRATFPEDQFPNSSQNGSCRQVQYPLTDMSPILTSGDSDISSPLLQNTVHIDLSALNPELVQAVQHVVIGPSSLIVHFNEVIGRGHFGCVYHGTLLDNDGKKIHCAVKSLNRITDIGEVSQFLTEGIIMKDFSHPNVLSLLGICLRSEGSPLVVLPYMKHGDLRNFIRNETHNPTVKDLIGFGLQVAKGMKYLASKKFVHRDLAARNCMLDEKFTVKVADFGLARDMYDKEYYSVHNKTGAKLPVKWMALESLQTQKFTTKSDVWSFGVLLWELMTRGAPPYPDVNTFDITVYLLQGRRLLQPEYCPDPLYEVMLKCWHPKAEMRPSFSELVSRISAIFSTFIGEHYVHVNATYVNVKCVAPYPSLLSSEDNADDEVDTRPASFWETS
Target sequence in this assay (Q96SW2 whole entry partner): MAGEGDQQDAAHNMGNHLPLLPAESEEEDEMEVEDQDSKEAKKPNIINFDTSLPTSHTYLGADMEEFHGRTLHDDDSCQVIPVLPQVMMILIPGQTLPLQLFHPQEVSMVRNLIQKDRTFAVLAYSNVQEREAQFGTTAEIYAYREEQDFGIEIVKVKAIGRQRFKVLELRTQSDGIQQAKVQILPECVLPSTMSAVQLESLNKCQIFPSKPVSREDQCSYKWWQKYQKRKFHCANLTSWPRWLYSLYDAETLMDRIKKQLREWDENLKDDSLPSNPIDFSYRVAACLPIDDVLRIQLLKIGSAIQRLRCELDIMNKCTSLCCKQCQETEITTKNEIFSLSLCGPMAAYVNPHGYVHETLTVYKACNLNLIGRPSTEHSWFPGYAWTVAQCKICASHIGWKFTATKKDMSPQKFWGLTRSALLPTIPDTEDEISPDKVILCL

[2] = Stability in human whole blood assessed as half life; format: ADME, tissue-based
[3] = biological target: T1, Protein cereblon/Hepatocyte growth factor receptor; test: PROTAC activity at c-Met/CRBN in human EBC-1 cells assessed as reduction in c-Met level at 3.9 to 125 nM incubated for 24 hrs in presence of lenalidomide by Western blot analysis; format: cell-based; conditions: dose 3.9-125 nM
Target sequence in this assay (P08581 25-1390 limits assumed): as the sequence (P08581 25-1390 limits assumed) above
Target sequence in this assay (Q96SW2 whole entry partner): as the sequence (Q96SW2 whole entry partner) above

[4] = Toxicity in BALB/c nude mouse assessed as spleen damage at 10 to 20 mg/kg, ip administered for 7 days by H and E staining based analysis; format: organism-based; conditions: in vivo, 168 h, dose 10-20 mg/kg, time 7 day
[5] = biological target: T1, Protein cereblon/Hepatocyte growth factor receptor; test: PROTAC activity at c-Met/CRBN in human EBC-1 cells assessed as reduction in TFPI2 level at 15.6 nM incubated for 24 hrs by proteomics analysis; format: cell-based
Target sequence in this assay (P08581 25-1390 limits assumed): as the sequence (P08581 25-1390 limits assumed) above
Target sequence in this assay (Q96SW2 whole entry partner): as the sequence (Q96SW2 whole entry partner) above

EBC-1 [6] = test: Antitumor activity against human EBC-1 cells xenografted BALB/c nude mouse assessed as reduction in tumor volume at 10 mg/kg, ip administered for 7 days; format: functional; design: scale not given: the % may be the effect or the level left; conditions: time 7 day
[7] = biological target: T1, Protein cereblon/Hepatocyte growth factor receptor; test: PROTAC activity at c-Met/CRBN in human EBC-1 cells assessed as reduction in c-Met level at 3.9 to 125 nM incubated for 24 hrs in presence of tepotinib by Western blot analysis; format: cell-based; conditions: dose 3.9-125 nM
Target sequence in this assay (P08581 25-1390 limits assumed): as the sequence (P08581 25-1390 limits assumed) above
Target sequence in this assay (Q96SW2 whole entry partner): as the sequence (Q96SW2 whole entry partner) above

[8] = biological target: T1, Protein cereblon/Hepatocyte growth factor receptor; test: PROTAC activity at c-Met/CRBN in human A549 cells assessed as induction of c-Met degradation at 15.6 nM by Western blotting analysis; format: cell-based; conditions: time 72.0 hrs
Target sequence in this assay (P08581 25-1390 limits assumed): as the sequence (P08581 25-1390 limits assumed) above
Target sequence in this assay (Q96SW2 whole entry partner): as the sequence (Q96SW2 whole entry partner) above

[9] = biological target: T1, Protein cereblon/Hepatocyte growth factor receptor; test: PROTAC activity at c-Met/CRBN in human EBC-1 cells assessed as induction of c-Met degradation at 15.6 nM incubated for 24 hrs by Western blotting analysis relative to control; format: cell-based
Target sequence in this assay (P08581 25-1390 limits assumed): as the sequence (P08581 25-1390 limits assumed) above
Target sequence in this assay (Q96SW2 whole entry partner): as the sequence (Q96SW2 whole entry partner) above

[10] = Toxicity in BALB/c nude mouse assessed as kidney damage at 10 to 20 mg/kg, ip administered for 7 days by H and E staining based analysis; format: organism-based; conditions: in vivo, 168 h, dose 10-20 mg/kg, time 7 day
[11] = biological target: T1, Protein cereblon/Hepatocyte growth factor receptor; test: PROTAC activity at c-Met/CRBN in human EBC-1 cells assessed as reduction in c-Met level at 3.9 to 125 nM incubated for 24 hrs in presence of MG132 by Western blot analysis; format: cell-based; conditions: dose 3.9-125 nM
[12] = Toxicity in BALB/c nude mouse assessed as body weight loss at 10 to 20 mg/kg, ip administered for 7 days; format: organism-based; conditions: in vivo, 168 h, dose 10-20 mg/kg, time 7 day
[13] = biological target: T1, Protein cereblon/Hepatocyte growth factor receptor; test: PROTAC activity at c-Met/CRBN in human EBC-1 cells assessed as effect on SALL4 level at 15.6 nM incubated for 24 hrs by proteomics analysis; format: cell-based
EBC-1 [14] = test: Antitumor activity against human EBC-1 cells xenografted in ip dosed BALB/c nude mouse assessed as reduction in tumor growth administered for 7 days; format: functional, organism-based; conditions: dose 10-20 mg/kg, time 7.0 day
[15] = Stability in human plasma assessed as half life; format: ADME, cell-free
[16] = biological target: T1, Protein cereblon/Hepatocyte growth factor receptor; test: PROTAC activity at c-Met/CRBN in human A549 cells assessed as reduction in c-Met level at 3.9 to 125 nM incubated for 24 hrs in presence of tepotinib by Western blot analysis; format: cell-based; conditions: dose 3.9-125 nM
[17] = Metabolic stability in rat liver microsome assessed as half life; format: ADME; conditions: liver microsomes
[18] = Bioavailability in Sprague-Dawley rat at 5 mg/kg, ip measured upto 24 hrs by LC-MS/MS analysis; format: ADME, organism-based; conditions: in vivo
EBC-1 [19] = test: Antiproliferative activity against human EBC-1 cells assessed as cell viability incubated for 72 hrs by MTT assay; format: functional, cell-based; conditions: EBC-1, 72 h
[20] = Tmax in Sprague-Dawley rat at 2 mg/kg, iv measured upto 24 hrs by LC-MS/MS analysis; format: ADME, organism-based; conditions: in vivo
[21] = Metabolic stability in human liver microsome assessed as half life; format: ADME; conditions: liver microsomes
[22] = Cmax in Sprague-Dawley rat at 5 mg/kg, ip measured upto 24 hrs by LC-MS/MS analysis; format: ADME, organism-based; conditions: in vivo
[23] = Toxicity in BALB/c nude mouse assessed as lung damage at 10 to 20 mg/kg, ip administered for 7 days by H and E staining based analysis; format: organism-based; conditions: in vivo, 168 h, dose 10-20 mg/kg, time 7 day
[24] = MRT (0 to infinity) in Sprague-Dawley rat at 2 mg/kg, iv measured upto 24 hrs by LC-MS/MS analysis; format: ADME, organism-based; conditions: in vivo
[25] = AUC (0 to t) in Sprague-Dawley rat at 2 mg/kg, iv measured upto 24 hrs by LC-MS/MS analysis; format: ADME, organism-based; conditions: in vivo
EBC-1 [26] = test: Induction of apoptosis in human EBC-1 cells assessed as early apoptotic cells at 15 nM incubated for 24 hrs by Annexin V/FITC staining based flow cytometry analysis (reference value: 2.11 %); format: functional
[27] = biological target: T1, Protein cereblon/Hepatocyte growth factor receptor; test: PROTAC activity at c-Met/CRBN in human EBC-1 cells assessed as reduction in AKR1C3 level at 15.6 nM incubated for 24 hrs by proteomics analysis; format: cell-based
[28] = biological target: T1, Protein cereblon/Hepatocyte growth factor receptor; test: PROTAC activity at c-Met/CRBN in human HCT-116 cells assessed as induction of c-Met degradation incubated for 24 hrs by Western blotting analysis; format: cell-based
Target sequence in this assay (P08581 whole entry): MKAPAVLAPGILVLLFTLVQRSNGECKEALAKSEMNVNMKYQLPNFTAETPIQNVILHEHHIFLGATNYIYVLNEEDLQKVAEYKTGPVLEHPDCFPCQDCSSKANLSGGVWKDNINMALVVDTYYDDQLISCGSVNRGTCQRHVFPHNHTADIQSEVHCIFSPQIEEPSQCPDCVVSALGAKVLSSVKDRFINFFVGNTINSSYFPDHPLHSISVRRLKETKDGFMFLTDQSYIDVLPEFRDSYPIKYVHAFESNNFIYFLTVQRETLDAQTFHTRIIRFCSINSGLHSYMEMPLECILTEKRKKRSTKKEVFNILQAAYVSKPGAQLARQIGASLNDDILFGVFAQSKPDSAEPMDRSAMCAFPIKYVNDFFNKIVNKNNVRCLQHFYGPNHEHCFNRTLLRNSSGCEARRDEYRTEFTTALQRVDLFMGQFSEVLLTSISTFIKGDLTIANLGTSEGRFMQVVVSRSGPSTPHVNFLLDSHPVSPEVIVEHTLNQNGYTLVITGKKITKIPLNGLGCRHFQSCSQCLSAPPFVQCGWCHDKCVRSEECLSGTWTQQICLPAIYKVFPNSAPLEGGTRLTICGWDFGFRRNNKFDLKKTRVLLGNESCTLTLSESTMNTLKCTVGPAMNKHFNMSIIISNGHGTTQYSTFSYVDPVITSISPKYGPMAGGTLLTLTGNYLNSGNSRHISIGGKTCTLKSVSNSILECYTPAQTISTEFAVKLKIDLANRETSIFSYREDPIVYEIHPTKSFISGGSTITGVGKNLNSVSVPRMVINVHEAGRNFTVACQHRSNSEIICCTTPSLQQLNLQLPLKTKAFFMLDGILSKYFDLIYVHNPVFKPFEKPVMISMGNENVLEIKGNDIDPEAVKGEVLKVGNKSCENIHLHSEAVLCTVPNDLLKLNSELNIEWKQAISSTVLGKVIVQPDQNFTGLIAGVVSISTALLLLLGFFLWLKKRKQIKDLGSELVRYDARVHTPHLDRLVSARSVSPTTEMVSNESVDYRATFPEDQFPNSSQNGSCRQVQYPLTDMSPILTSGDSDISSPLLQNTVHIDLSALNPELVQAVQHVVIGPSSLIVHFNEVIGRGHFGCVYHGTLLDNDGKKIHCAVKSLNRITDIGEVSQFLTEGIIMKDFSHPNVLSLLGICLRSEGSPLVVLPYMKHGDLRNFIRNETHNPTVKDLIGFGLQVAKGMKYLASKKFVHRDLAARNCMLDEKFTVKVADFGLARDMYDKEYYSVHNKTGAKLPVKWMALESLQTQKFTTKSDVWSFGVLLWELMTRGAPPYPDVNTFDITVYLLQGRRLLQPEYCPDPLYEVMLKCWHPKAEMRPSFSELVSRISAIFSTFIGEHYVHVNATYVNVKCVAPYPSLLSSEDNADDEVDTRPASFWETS
Target sequence in this assay (Q96SW2 whole entry): as the sequence (Q96SW2 whole entry partner) above

EBC-1 [29] = test: Induction of apoptosis in human EBC-1 cells assessed as viable cells at 15 nM incubated for 24 hrs by Annexin V/FITC staining based flow cytometry analysis (reference value: 95.9%); format: functional; conditions: read-out: Activity
[30] = Half life in Sprague-Dawley rat at 5 mg/kg, ip measured upto 24 hrs by LC-MS/MS analysis; format: ADME, organism-based; conditions: in vivo
[31] = AUC (0 to t) in Sprague-Dawley rat at 5 mg/kg, ip measured upto 24 hrs by LC-MS/MS analysis; format: ADME, organism-based; conditions: in vivo
[32] = AUC (0 to infinity) in Sprague-Dawley rat at 2 mg/kg, iv measured upto 24 hrs by LC-MS/MS analysis; format: ADME, organism-based; conditions: in vivo
[33] = Apparent volume of distribution in Sprague-Dawley rat at 2 mg/kg, iv measured upto 24 hrs by LC-MS/MS analysis; format: ADME, organism-based; conditions: in vivo
EBC-1 [34] = test: Induction of apoptosis in human EBC-1 cells assessed as early apoptotic cells at 50 nM incubated for 24 hrs by Annexin V/FITC staining based flow cytometry analysis (reference value: 2.11 %); format: functional
[35] = biological target: T1, Protein cereblon/Hepatocyte growth factor receptor; test: PROTAC activity at c-Met/CRBN in human EBC-1 cells assessed as reduction in IFRD1 level at 15.6 nM incubated for 24 hrs by proteomics analysis; format: cell-based
[36] = Metabolic stability in human liver microsome assessed as clearance; format: ADME; conditions: liver microsomes, read-out: CLH
EBC-1 [37] = test: PROTAC activity at c-Met Y1230C mutant /CRBN in human EBC-1 cells assessed as induction of c-Met degradation up to 1000 nM incubated for 24 hrs by Western blotting analysis; format: cell-based
[38] = biological target: T1, Protein cereblon/Hepatocyte growth factor receptor; test: PROTAC activity at c-Met/CRBN in human EBC-1 cells assessed as reduction in FOSL1 level at 15.6 nM incubated for 24 hrs by proteomics analysis; format: cell-based
[39] = biological target: T1, Protein cereblon/Hepatocyte growth factor receptor; test: PROTAC activity at c-Met/CRBN in human EBC-1 cells assessed as reduction in TPX2 level at 15.6 nM incubated for 24 hrs by proteomics analysis; format: cell-based

**Q.** For COc1ccc(C(=O)N2CCC3(CCN(C(=O)CN4CCC(COc5cnc(-c6cccc(Cn7nc(-c8cccc(C#N)c8)ccc7=O)c6)nc5)CC4)CC3)CC2)cc1N1CCC(=O)NC1=O, which Activity [1] is on record?
**A.** Active

**Q.** And the half-life [2]?
**A.** > 2 h

**Q.** What about the Activity [3] of the same molecule?
**A.** Active

**Q.** What about the Activity [4] of the same molecule?
**A.** Non-toxic

**Q.** What about the Activity [5] of the same molecule?
**A.** Active

**Q.** And the Activity (EBC-1 [6])?
**A.** 86.14%

**Q.** What about the Activity [7] of the same molecule?
**A.** inactive

**Q.** And the Activity [8]?
**A.** Time-dependent-effect

**Q.** What about the Emax [9] of the same molecule?
**A.** 96.1%

**Q.** And the Activity [10]?
**A.** Non-toxic

**Q.** And the Activity [11]?
**A.** Active

**Q.** What about the Activity [12] of the same molecule?
**A.** Non-toxic

**Q.** What about the Activity [13] of the same molecule?
**A.** No effect

**Q.** And the Activity (EBC-1 [14])?
**A.** Dose-dependent-effect

**Q.** And the half-life [15]?
**A.** > 2 h

**Q.** And the Activity [16]?
**A.** inactive

**Q.** What about the half-life [17] of the same molecule?
**A.** 2.22 h

**Q.** What about the bioavailability [18] of the same molecule?
**A.** 49.2%

**Q.** What about the IC50 (EBC-1 [19]) of the same molecule?
**A.** 4 nM

**Q.** What about the Tmax [20] of the same molecule?
**A.** 5.04 min

**Q.** What about the half-life [21] of the same molecule?
**A.** 0.362 h

**Q.** What about the Cmax [22] of the same molecule?
**A.** 104 ng/mL

**Q.** What about the Activity [23] of the same molecule?
**A.** Non-toxic

**Q.** And the MRT [24]?
**A.** 3.58 h

**Q.** And the AUCt [25]?
**A.** 532 ng·h/mL

**Q.** And the Activity (EBC-1 [26])?
**A.** 30.8%

**Q.** And the Activity [27]?
**A.** Active

**Q.** And the DC50 [28]?
**A.** < 15.6 nM

**Q.** What about the viability at 0.015 µM (EBC-1 [29]) of the same molecule?
**A.** 65%

**Q.** And the half-life [30]?
**A.** 5.49 h

**Q.** What about the AUCt [31] of the same molecule?
**A.** 655 ng·h/mL

**Q.** What about the AUC(0-inf) [32] of the same molecule?
**A.** 551 ng·h/mL

**Q.** And the Vz [33]?
**A.** 13.13 L/kg

**Q.** What about the Activity (EBC-1 [34]) of the same molecule?
**A.** 33.9%

**Q.** What about the Activity [35] of the same molecule?
**A.** Active

**Q.** What about the CLint scaled [36] of the same molecule?
**A.** 57.6 mL/min/kg

**Q.** And the Activity (EBC-1 [37])?
**A.** Active

**Q.** What about the Activity [38] of the same molecule?
**A.** Active

**Q.** What about the Activity [39] of the same molecule?
**A.** Active

— ChEMBL document CHEMBL6153102, “Rational Design, Synthesis, and Biological Evaluation of Novel c-Met Degraders for Lung Cancer Therapy” (J Med Chem, 2025)
